Legend:
soleus muscle = assay: 2-Deoxyglucose uptake (glucose transport activity) in soleus muscle removed from treated obese Zucker rats, incubated in vitro; assay type: in vivo, obese Zucker rat (fa/fa); details: obese Zucker rats treated 18-20 days; for 2-Deoxyglucose level, Increase: insulin-stimulated minus basal; for 2-Deoxyglucose level, + Insulin [5 mU/ml] / 2-Deoxyglucose level, Basal: R-LA 10 mg/kg ip, CLA 0.3 mg/kg (table) by gavage; for 2-Deoxyglucose level, + Insulin [5 mU/ml]: insulin 5 mU/ml in vitro; for 2-Deoxyglucose level, Basal: no insulin
Text: (§1) The obese Zucker rat (fa/fa) is an animal model of insulin resistance, glucose intolerance, hyperinsulinaemia and dyslipidaemia. This model was used to determine the effect of four different forms of diet (control, R-lipoic acid (R—LA), conjugated linoleic acid (CLA) and a combination of conjugated linoleic acid and R-lipoic acid) on insulin-induced skeletal muscle glucose transport activity and on glucose tolerance.
(§2) The test animals were maintained on regular chow and water ad libitum. […] R-lipoic acid was administered by intraperitoneal injection; conjugated linoleic acid by gavage. The treatment period lasted for 18-20 days.
(§3) 24 hours after the final treatment and having been restricted to 4 g chow during the previous 13 hours, animals were deeply anaesthetised with pentobarbital sodium (50 mg/kg ip). Right soleus muscles and both right and left epitrochlearis muscles were surgically removed and prepared for incubation in vitro. Muscles were prepared as described by Peth J A et al. (Am J Physiol Regulatory Integrative Comp Physiol 2000; 278: R453-R459). Glucose transport activity was then determined as described by Hendriksen and Halseth (J Appl Physiol 1994; 76: 1862-1867).

epitrochlearis muscle = assay: 2-Deoxyglucose uptake (glucose transport activity) in epitrochlearis muscle removed from treated obese Zucker rats, incubated in vitro; assay type: in vivo, obese Zucker rat (fa/fa); details: obese Zucker rats treated 18-20 days; for 2-Deoxyglucose level, Increase: insulin-stimulated minus basal; for 2-Deoxyglucose level, + Insulin [5 mU/ml] / 2-Deoxyglucose level, Basal: R-LA 10 mg/kg ip, CLA 0.3 mg/kg (table) by gavage; for 2-Deoxyglucose level, + Insulin [5 mU/ml]: insulin 5 mU/ml in vitro; for 2-Deoxyglucose level, Basal: no insulin
Text: as §1, §2, §3

skeletal muscle = assay: Insulin-induced skeletal muscle glucose transport activity in treated obese Zucker rats (summary statement); assay type: in vivo, obese Zucker rat (fa/fa); details: each substance alone
Text: as §1
The test animals were maintained on regular chow and water ad libitum. At the age of 9-10 weeks, the animals were assigned to either a vehicle-treated control group or to intervention groups receiving either R-lipoic acid (10 mg/kg bodyweight), conjugated linoleic acid (c9,t11:t10,c12; 50:50; 0.3 g/kg bodyweight) or both. R-lipoic acid was administered by intraperitoneal injection; conjugated linoleic acid by gavage. The treatment period lasted for 18-20 days.
as §3, with “Muscles were prepared as described by Peth J A et al. (Am J Physiol Regulatory Integrative Comp Physiol 2000; 278: R453-R459).” left out

NIDDM patients = details: 800 mg each day for 4 months; cited from earlier work
[1] = test system: patients with type II diabetes; details: single parenteral dose of 1,000 mg; cited from earlier work
diabetic polyneuropathy = details: 3-week intravenous and subsequent 6-months oral treatment, cited from earlier work
diabetic neuropathy = details: intravenous 600 mg a day for 3 weeks; cited from earlier work

conjugated linoleic acid [CLA]
2-Deoxyglucose level, Increase (soleus muscle): 261 +/− 13 pmol/mg muscle | 2-Deoxyglucose level, + Insulin [5 mU/ml] (soleus muscle): 492 +/− 9 pmol/mg muscle | 2-Deoxyglucose level, Basal (soleus muscle): 231 +/− 6 pmol/mg muscle | 2-Deoxyglucose level, Increase (epitrochlearis muscle): 123 +/− 13 pmol/mg muscle | 2-Deoxyglucose level, + Insulin [5 mU/ml] (epitrochlearis muscle): 248 +/− 14 pmol/mg muscle | 2-Deoxyglucose level, Basal (epitrochlearis muscle): 126 +/− 4 pmol/mg muscle | skeletal muscle glucose transport activity following stimulation by insulin, beyond the increase in the vehicle-treated control group (skeletal muscle): Neither R-lipoic acid nor conjugated linoleic acid alone increased

O=C(O)CCCCC1CCSS1 (stereo not shown) [lipoic acid, 5-(1,2-dithiolan-3-yl)valeric acid]
cardiovascular autonomic symptoms (NIDDM patients): no significant change | glucose utilization [1]: distinct improvement | neuropathic deficits (diabetic polyneuropathy): appeared to have a beneficial effect | neuropathic symptoms (diabetic polyneuropathy; versus placebo): no effect on neuropathic symptoms distinguishable from placebo | symptomatic complaints (diabetic neuropathy): decreased

O=C(O)CCCC[C@@H]1CCSS1 [R-LA, (R)-5-(1,2-dithiolan-3-yl)-valeric acid]
2-Deoxyglucose level, Increase (soleus muscle): 258 +/− 16 pmol/mg muscle | 2-Deoxyglucose level, + Insulin [5 mU/ml] (soleus muscle): 481 +/− 19 pmol/mg muscle | 2-Deoxyglucose level, Basal (soleus muscle): 224 +/− 7 pmol/mg muscle | 2-Deoxyglucose level, Increase (epitrochlearis muscle): 102 +/− 11 pmol/mg muscle | 2-Deoxyglucose level, + Insulin [5 mU/ml] (epitrochlearis muscle): 225 +/− 8 pmol/mg muscle | 2-Deoxyglucose level, Basal (epitrochlearis muscle): 123 +/− 3 pmol/mg muscle | skeletal muscle glucose transport activity following stimulation by insulin, beyond the increase in the vehicle-treated control group (skeletal muscle): Neither R-lipoic acid nor conjugated linoleic acid alone increased

Reference: patent publication US20030187058A1, “Combination of lipoic acids and conjugated acids for treating diabetic disorders” (priority 2000, published 2003)
